Converted amounts (≈) assume the structure as drawn.
Tests used:
Klebsiella pneumoniae [1] = assay: Antimicrobial activity against Klebsiella pneumoniae ZJ68T expressing CTX-M-15 by CLSI method; type: functional
Klebsiella pneumoniae [2] = assay: Antimicrobial activity against carbapenem-resistant Klebsiella pneumoniae ZJ69 deficient in SHV-28, ompK35/36 by CLSI method; type: functional
Klebsiella pneumoniae [3] = assay: Antimicrobial activity against Klebsiella pneumoniae PU104T expressing TEM-1, CTX-M-15 by CLSI method; type: functional
Escherichia coli [4] = assay: Antimicrobial activity against carbapenem-resistant Escherichia coli PU101 deficient in TEM-1, CTX-M-14, CMY-2, ompC by CLSI method; type: functional
Escherichia coli [5] = assay: Antimicrobial activity against Escherichia coli PU102T expressing TEM-1, CTX-M-14, CMY-2 by CLSI method; type: functional
Klebsiella aerogenes [6] = assay: Antimicrobial activity against carbapenem-resistant Enterobacter aerogenes PU41 deficient in CTX-M-14, DHA-1, qnrS1, ompC DEc, ompF by CLSI method; type: functional
Klebsiella aerogenes [7] = assay: Antimicrobial activity against Enterobacter aerogenes PU41T expressing CTX-M-14, DHA-1, qnrS1 by CLSI method; type: functional
Escherichia coli [8] = assay: Antimicrobial activity against carbapenem-resistant Escherichia coli PU43 deficient in TEM-1, CTX-M-14, aac(6')-Ib, ompC/F by CLSI method; type: functional
Escherichia coli [9] = assay: Antimicrobial activity against carbapenem-resistant Escherichia coli HX74 deficient in TEM-1, CTX-M-14, CTX-M-3, aac(6')-Ibcr, ompC/F by CLSI method; type: functional
Enterobacter cloacae [10] = assay: Antimicrobial activity against carbapenem-resistant Enterobacter cloacae NJ88 deficient in CTX-M-14, ompC/F by CLSI method; type: functional
Enterobacter cloacae [11] = assay: Antimicrobial activity against carbapenem-resistant Enterobacter cloacae NJ89 deficient in CTX-M-14, ompC/F by CLSI method; type: functional
Enterobacter cloacae [12] = assay: Antimicrobial activity against carbapenem-resistant Enterobacter cloacae NJ91 deficient in CTX-M-14, ompC/F by CLSI method; type: functional
Klebsiella pneumoniae [13] = assay: Antimicrobial activity against carbapenem-resistant Klebsiella pneumoniae GZ84 deficient in SHV-11, aac(6')-Ib-cr, ompK35 by CLSI method; type: functional
Klebsiella pneumoniae [14] = assay: Antimicrobial activity against Klebsiella pneumoniae ZJ18T expressing KPC-2, DHA-1 by CLSI method; type: functional
Klebsiella pneumoniae [15] = assay: Antimicrobial activity against carbapenem-resistant Klebsiella pneumoniae ZJ70 deficient in KPC-2, SHV-11, CTX-M-14, ompK35/36 by CLSI method; type: functional
Klebsiella pneumoniae [16] = assay: Antimicrobial activity against carbapenem-resistant Klebsiella pneumoniae ZJ71 deficient in KPC-2, TEM-1, SHV-11, CTX-M-14, ompK35 by CLSI method; type: functional
Klebsiella pneumoniae [17] = assay: Antimicrobial activity against Klebsiella pneumoniae ZJ71T expressing KPC-2 by CLSI method; type: functional
Klebsiella pneumoniae [18] = assay: Antimicrobial activity against Klebsiella pneumoniae ZJ99 expressing KPC-2, CTX-M-3, qnrS1, ompK35 DE by CLSI method; type: functional
Klebsiella pneumoniae [19] = assay: Antimicrobial activity against Klebsiella pneumoniae ZJ99T expressing KPC-2, CTX-M-3, qnrS1 by CLSI method; type: functional
Escherichia coli [20] = assay: Antimicrobial activity against Escherichia coli ZJ86T expressing KPC-2 by CLSI method; type: functional
Escherichia coli [21] = assay: Antimicrobial activity against Escherichia coli ZJ87T expressing KPC-2 by CLSI method; type: functional
Klebsiella pneumoniae [22] = assay: Antimicrobial activity against carbapenem-resistant Klebsiella pneumoniae FZ47 deficient in IMP-8, TEM-1, SHV-11, CTX-M-14, qnrB2, aac(6')-Ib, ompK35/36 by CLSI method; type: functional
Klebsiella pneumoniae [23] = assay: Antimicrobial activity against carbapenem-resistant Klebsiella pneumoniae FZ49 deficient in IMP-8, TEM-1, SHV-11, CTX-M-14, qnrB2, aac(6')-Ib, ompK35/36 by CLSI method; type: functional
Klebsiella pneumoniae [24] = assay: Antimicrobial activity against Klebsiella pneumoniae FZ49T expressing IMP-8, TEM-1, CTX-M-14, qnrB2, aac(6')-Ib by CLSI method; type: functional
Klebsiella pneumoniae [25] = assay: Antimicrobial activity against Klebsiella pneumoniae GZ64T expressing IMP-4 by CLSI method; type: functional
Klebsiella pneumoniae [26] = assay: Antimicrobial activity against Klebsiella pneumoniae WH77 expressing IMP-4, TEM-1, SHV-14, CTX-M-3, qnrS1 by CLSI method; type: functional
Citrobacter freundii [27] = assay: Antimicrobial activity against Citrobacter freundii SZ62 expressing IMP-4, TEM-1, CMY-2, qnrS1, aac(6')-Ib-cr by CLSI method; type: functional
Citrobacter freundii [28] = assay: Antimicrobial activity against Citrobacter freundii SZ63 expressing IMP-4, qnrS1by CLSI method; type: functional
Enterobacter cloacae [29] = assay: Antimicrobial activity against carbapenem-resistant Enterobacter cloacae SZ92 deficient in IMP-4, TEM-1, CTX-M-14, DHA-1, qnrB10/B4-like, aac(6')-Ib, ompC by CLSI method; type: functional
Enterobacter cloacae [30] = assay: Antimicrobial activity against carbapenem-resistant Enterobacter cloacae WH103 deficient in IMP-4, TEM-1, CTX-M-3, qnrS1, ompC by CLSI method; type: functional
Klebsiella pneumoniae [31] = assay: Antimicrobial activity against carbapenem-resistant Klebsiella pneumoniae CY1 deficient in SHV-11, DHA-1, ompK35/36 by CLSI method; type: functional
Klebsiella pneumoniae [32] = assay: Antimicrobial activity against Klebsiella pneumoniae CY1T expressing SHV-11, DHA-1 by CLSI method; type: functional
Klebsiella pneumoniae [33] = assay: Antimicrobial activity against carbapenem-resistant Klebsiella pneumoniae PU3 deficient in DHA-1, aac(6')-Ib-cr, ompK35/36 by CLSI method; type: functional
Klebsiella pneumoniae [34] = assay: Antimicrobial activity against carbapenem-resistant Klebsiella pneumoniae PU8 deficient in SHV-11, DHA-1, aac(6')-Ib-cr, ompK35/36 by CLSI method; type: functional
Klebsiella pneumoniae [35] = assay: Antimicrobial activity against carbapenem-resistant Klebsiella pneumoniae SZ61 deficient in TEM-1, SHV-1a, CMY-2, ompK35/36 by CLSI method; type: functional
Klebsiella pneumoniae [36] = assay: Antimicrobial activity against carbapenem-resistant Klebsiella pneumoniae GZ66 deficient in SHV-11, DHA-1, ompK35/36 by CLSI method; type: functional
Klebsiella pneumoniae [37] = assay: Antimicrobial activity against carbapenem-resistant Klebsiella pneumoniae XJ81 deficient in TEM-1, SHV-12, DHA-1, aac(6')-Ib, ompK35/36 by CLSI method; type: functional
Escherichia coli [38] = assay: Antimicrobial activity against Escherichia coli C600 transconjugant SZ62T expressing IMP-4, qnrS1by CLSI method
Escherichia coli [39] = assay: Antimicrobial activity against Escherichia coli C600 transconjugant XJ81T expressing TEM-1, SHV-12, aac(6')-Ib by CLSI method
Escherichia coli [40] = assay: Antimicrobial activity against carbapenem-resistant Escherichia coli ZJ86 expressing KPC-2, TEM-1 with ompC loss by CLSI method
Escherichia coli [41] = assay: Antimicrobial activity against Escherichia coli C600 transconjugant WH77T expressing IMP-4, TEM-1, CTX-M-3, qnrS1 by CLSI method

`CC(C)(O/N=C(\C(=O)N[C@@H]1C(=O)N2C(C(=O)[O-])=C(C[n+]3ccccc3)CS[C@H]12)c1csc(N)n1)C(=O)O` [CEFTAZIDIME] gave an MIC (Klebsiella pneumoniae [1]) of 256 µg/mL (≈ 468 µM), an MIC (Klebsiella pneumoniae [2]) of 128 µg/mL (≈ 234 µM) and an MIC (Klebsiella pneumoniae [3]) of 64 µg/mL (≈ 117 µM). It also gave an MIC (Escherichia coli [4]) greater than 256 µg/mL, an MIC (Escherichia coli [5]) of 64 µg/mL (≈ 117 µM) and an MIC (Klebsiella aerogenes [6]) of 64 µg/mL (≈ 117 µM). The MIC (Klebsiella aerogenes [7]) was 64 µg/mL (≈ 117 µM), the MIC (Escherichia coli [8]) was 32 µg/mL (≈ 58.5 µM) and the MIC (Escherichia coli [9]) was 256 µg/mL (≈ 468 µM). For the same compound, the MIC (Enterobacter cloacae [10]) was greater than 256 µg/mL, the MIC (Enterobacter cloacae [11]) was greater than 256 µg/mL and the MIC (Enterobacter cloacae [12]) was greater than 256 µg/mL. For the same compound, the MIC (Klebsiella pneumoniae [13]) was 256 µg/mL (≈ 468 µM), the MIC (Klebsiella pneumoniae [14]) was 16 µg/mL (≈ 29.3 µM) and the MIC (Klebsiella pneumoniae [15]) was 64 µg/mL (≈ 117 µM). It also gave an MIC (Klebsiella pneumoniae [16]) of 32 µg/mL (≈ 58.5 µM), an MIC (Klebsiella pneumoniae [17]) of 32 µg/mL (≈ 58.5 µM) and an MIC (Klebsiella pneumoniae [18]) of 64 µg/mL (≈ 117 µM). It also gave an MIC (Klebsiella pneumoniae [19]) of 128 µg/mL (≈ 234 µM), an MIC (Escherichia coli [20]) of 32 µg/mL (≈ 58.5 µM) and an MIC (Escherichia coli [21]) of 32 µg/mL (≈ 58.5 µM). The MIC (Klebsiella pneumoniae [22]) was greater than 256 µg/mL, the MIC (Klebsiella pneumoniae [23]) was greater than 256 µg/mL and the MIC (Klebsiella pneumoniae [24]) was greater than 256 µg/mL. The MIC (Klebsiella pneumoniae [25]) was 256 µg/mL (≈ 468 µM), the MIC (Klebsiella pneumoniae [26]) was 256 µg/mL (≈ 468 µM) and the MIC (Citrobacter freundii [27]) was greater than 256 µg/mL. For the same compound, the MIC (Citrobacter freundii [28]) was greater than 256 µg/mL, the MIC (Enterobacter cloacae [29]) was greater than 256 µg/mL and the MIC (Enterobacter cloacae [30]) was greater than 256 µg/mL. It also gave an MIC (Klebsiella pneumoniae [31]) of 256 µg/mL (≈ 468 µM), an MIC (Klebsiella pneumoniae [32]) of 64 µg/mL (≈ 117 µM) and an MIC (Klebsiella pneumoniae [33]) of 128 µg/mL (≈ 234 µM). The MIC (Klebsiella pneumoniae [34]) was 256 µg/mL (≈ 468 µM), the MIC (Klebsiella pneumoniae [35]) was 256 µg/mL (≈ 468 µM) and the MIC (Klebsiella pneumoniae [36]) was greater than 256 µg/mL. The MIC (Klebsiella pneumoniae [37]) was greater than 256 µg/mL, the MIC (Escherichia coli [38]) was greater than 256 µg/mL and the MIC (Escherichia coli [39]) was 64 µg/mL (≈ 117 µM). It also gave an MIC (Escherichia coli [40]) of 32 µg/mL (≈ 58.5 µM) and an MIC (Escherichia coli [41]) greater than 256 µg/mL.
Compound `CO[C@@]1(NC(=O)Cc2cccs2)C(=O)N2C(C(=O)O)=C(COC(N)=O)CS[C@@H]21` [CEFOXITIN] has an MIC (Klebsiella pneumoniae [1]) of 16 µg/mL (≈ 37.4 µM), an MIC (Klebsiella pneumoniae [2]) greater than 256 µg/mL and an MIC (Klebsiella pneumoniae [3]) of 256 µg/mL (≈ 599 µM). It also gave an MIC (Escherichia coli [4]) greater than 256 µg/mL, an MIC (Escherichia coli [5]) greater than 256 µg/mL and an MIC (Klebsiella aerogenes [6]) greater than 256 µg/mL. For the same compound, the MIC (Klebsiella aerogenes [7]) was 256 µg/mL (≈ 599 µM), the MIC (Escherichia coli [8]) was 128 µg/mL (≈ 299 µM) and the MIC (Escherichia coli [9]) was 64 µg/mL (≈ 150 µM). The MIC (Enterobacter cloacae [10]) was greater than 256 µg/mL, the MIC (Enterobacter cloacae [11]) was greater than 256 µg/mL and the MIC (Enterobacter cloacae [12]) was greater than 256 µg/mL. For the same compound, the MIC (Klebsiella pneumoniae [13]) was greater than 256 µg/mL, the MIC (Klebsiella pneumoniae [14]) was 128 µg/mL (≈ 299 µM) and the MIC (Klebsiella pneumoniae [15]) was 128 µg/mL (≈ 299 µM). For the same compound, the MIC (Klebsiella pneumoniae [16]) was 16 µg/mL (≈ 37.4 µM), the MIC (Klebsiella pneumoniae [17]) was 32 µg/mL (≈ 74.9 µM) and the MIC (Klebsiella pneumoniae [18]) was 32 µg/mL (≈ 74.9 µM). The MIC (Klebsiella pneumoniae [19]) was 32 µg/mL (≈ 74.9 µM), the MIC (Escherichia coli [20]) was 64 µg/mL (≈ 150 µM) and the MIC (Escherichia coli [21]) was 64 µg/mL (≈ 150 µM). The MIC (Klebsiella pneumoniae [22]) was greater than 256 µg/mL, the MIC (Klebsiella pneumoniae [23]) was greater than 256 µg/mL and the MIC (Klebsiella pneumoniae [24]) was greater than 256 µg/mL. For the same compound, the MIC (Klebsiella pneumoniae [25]) was 256 µg/mL (≈ 599 µM), the MIC (Klebsiella pneumoniae [26]) was greater than 256 µg/mL and the MIC (Citrobacter freundii [27]) was greater than 256 µg/mL. The MIC (Citrobacter freundii [28]) was greater than 256 µg/mL, the MIC (Enterobacter cloacae [29]) was greater than 256 µg/mL and the MIC (Enterobacter cloacae [30]) was greater than 256 µg/mL. The MIC (Klebsiella pneumoniae [31]) was greater than 256 µg/mL, the MIC (Klebsiella pneumoniae [32]) was 64 µg/mL (≈ 150 µM) and the MIC (Klebsiella pneumoniae [33]) was greater than 256 µg/mL. The MIC (Klebsiella pneumoniae [34]) was greater than 256 µg/mL, the MIC (Klebsiella pneumoniae [35]) was greater than 256 µg/mL and the MIC (Klebsiella pneumoniae [36]) was greater than 256 µg/mL. The MIC (Klebsiella pneumoniae [37]) was greater than 256 µg/mL, the MIC (Escherichia coli [38]) was greater than 256 µg/mL and the MIC (Escherichia coli [39]) was 16 µg/mL (≈ 37.4 µM). For the same compound, the MIC (Escherichia coli [40]) was 64 µg/mL (≈ 150 µM) and the MIC (Escherichia coli [41]) was greater than 256 µg/mL.

Reference: ChEMBL document CHEMBL1212738, “Phenotypic and genotypic characterization of Enterobacteriaceae with decreased susceptibility to carbapenems: results from large hospital-based surveillance studies in China” (2010)
